Like-named read-outs stand apart in the source and are kept apart here. Positions of bridges follow the written chain, without caps; N, C: chain ends. Non-standard residues stand in square brackets, D forms with d. Residues, ends and D or L forms follow the SMILES beside them.
Assays:
[1] = test system: iPGM orthologues and dPGM isozymes; type: biochemical
[2] = biological target: T1, C. elegans iPGM (Caenorhabditis elegans, UniProt G5EFZ1); assay: PGM enzyme-coupled bioluminescent end point assay (Kinase-Glo Plus); type: biochemical
T1 sequence (G5EFZ1 1-539): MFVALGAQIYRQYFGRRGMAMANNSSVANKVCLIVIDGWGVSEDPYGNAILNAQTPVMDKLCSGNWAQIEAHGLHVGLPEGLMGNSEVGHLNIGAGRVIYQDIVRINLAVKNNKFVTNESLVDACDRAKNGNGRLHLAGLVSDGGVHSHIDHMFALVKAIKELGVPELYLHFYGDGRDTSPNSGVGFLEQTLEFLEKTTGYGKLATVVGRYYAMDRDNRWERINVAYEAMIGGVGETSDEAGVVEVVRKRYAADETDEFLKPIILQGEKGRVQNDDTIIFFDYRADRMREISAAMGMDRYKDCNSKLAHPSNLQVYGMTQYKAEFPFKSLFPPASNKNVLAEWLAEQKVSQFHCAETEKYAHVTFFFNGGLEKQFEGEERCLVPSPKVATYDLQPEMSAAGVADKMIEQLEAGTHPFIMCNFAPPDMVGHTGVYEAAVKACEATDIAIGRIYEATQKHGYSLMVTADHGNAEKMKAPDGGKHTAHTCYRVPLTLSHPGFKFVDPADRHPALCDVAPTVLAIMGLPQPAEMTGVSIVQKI

[3] = biological target: T2, E. coli iPGM (Escherichia coli, UniProt P37689); assay: biochemical
T2 sequence (P37689 whole entry, looked up): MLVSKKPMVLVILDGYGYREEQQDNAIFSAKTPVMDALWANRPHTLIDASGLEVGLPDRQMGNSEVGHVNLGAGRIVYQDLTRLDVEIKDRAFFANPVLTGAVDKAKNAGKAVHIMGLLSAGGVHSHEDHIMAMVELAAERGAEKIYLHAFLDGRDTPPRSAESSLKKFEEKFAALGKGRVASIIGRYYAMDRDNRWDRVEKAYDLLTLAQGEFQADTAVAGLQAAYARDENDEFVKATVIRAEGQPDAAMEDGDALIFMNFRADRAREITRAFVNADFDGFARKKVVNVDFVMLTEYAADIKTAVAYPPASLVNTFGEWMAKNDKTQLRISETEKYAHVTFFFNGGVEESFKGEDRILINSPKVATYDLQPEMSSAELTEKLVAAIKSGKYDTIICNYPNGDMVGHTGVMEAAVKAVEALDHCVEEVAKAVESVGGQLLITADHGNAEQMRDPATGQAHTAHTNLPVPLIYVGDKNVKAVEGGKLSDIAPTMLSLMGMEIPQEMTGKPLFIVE

[4] = biological target: T2, E. coli iPGM; assay: biochemical; remark: listed apart in the source
[5] = biological target: H. sapiens dPGM (Homo sapiens, UniProt P18669); assay: Gradient elution moving boundary electrophoresis (GEMBE) assay; type: biochemical; conditions: 2.1 nM H. sapiens dPGM
Chain of H. sapiens dPGM (P18669 whole entry): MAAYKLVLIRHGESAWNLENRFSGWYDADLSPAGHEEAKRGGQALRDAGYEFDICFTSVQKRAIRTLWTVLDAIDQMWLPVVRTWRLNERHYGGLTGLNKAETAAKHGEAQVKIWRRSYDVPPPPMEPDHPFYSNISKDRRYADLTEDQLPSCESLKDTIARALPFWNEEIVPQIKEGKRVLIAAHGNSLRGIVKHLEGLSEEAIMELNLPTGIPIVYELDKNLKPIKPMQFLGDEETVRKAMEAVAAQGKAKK

[6] = biological target: E. coli cofactor-independent phosphoglycerate mutase (iPGM) (E. coli) (UniProt P37689)
Chain of E. coli cofactor-independent phosphoglycerate mutase (iPGM) (E. coli) (P37689 whole entry): as the sequence (P37689 whole entry, looked up) above

[7] = biological target: B. malayi iPGM (Brugia malayi, UniProt Q4VWF8); assay: biochemical
Chain of B. malayi iPGM (Q4VWF8 whole entry, looked up): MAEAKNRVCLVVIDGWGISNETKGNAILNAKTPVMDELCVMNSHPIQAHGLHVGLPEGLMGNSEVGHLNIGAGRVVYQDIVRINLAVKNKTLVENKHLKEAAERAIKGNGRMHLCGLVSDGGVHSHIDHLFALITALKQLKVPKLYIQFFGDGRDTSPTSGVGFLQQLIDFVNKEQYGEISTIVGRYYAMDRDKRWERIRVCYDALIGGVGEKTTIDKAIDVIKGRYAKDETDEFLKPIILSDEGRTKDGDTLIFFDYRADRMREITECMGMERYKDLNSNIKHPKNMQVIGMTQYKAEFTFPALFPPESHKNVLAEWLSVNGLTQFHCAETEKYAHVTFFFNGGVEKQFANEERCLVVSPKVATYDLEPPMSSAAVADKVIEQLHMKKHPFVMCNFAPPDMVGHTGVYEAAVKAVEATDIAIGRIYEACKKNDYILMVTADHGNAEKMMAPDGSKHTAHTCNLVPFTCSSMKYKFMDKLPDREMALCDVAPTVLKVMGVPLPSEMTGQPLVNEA

[8] = biological target: O. volvulus iPGM (Onchocerca volvulus, UniProt I6LDA6); assay: biochemical
Chain of O. volvulus iPGM (I6LDA6 whole entry, looked up): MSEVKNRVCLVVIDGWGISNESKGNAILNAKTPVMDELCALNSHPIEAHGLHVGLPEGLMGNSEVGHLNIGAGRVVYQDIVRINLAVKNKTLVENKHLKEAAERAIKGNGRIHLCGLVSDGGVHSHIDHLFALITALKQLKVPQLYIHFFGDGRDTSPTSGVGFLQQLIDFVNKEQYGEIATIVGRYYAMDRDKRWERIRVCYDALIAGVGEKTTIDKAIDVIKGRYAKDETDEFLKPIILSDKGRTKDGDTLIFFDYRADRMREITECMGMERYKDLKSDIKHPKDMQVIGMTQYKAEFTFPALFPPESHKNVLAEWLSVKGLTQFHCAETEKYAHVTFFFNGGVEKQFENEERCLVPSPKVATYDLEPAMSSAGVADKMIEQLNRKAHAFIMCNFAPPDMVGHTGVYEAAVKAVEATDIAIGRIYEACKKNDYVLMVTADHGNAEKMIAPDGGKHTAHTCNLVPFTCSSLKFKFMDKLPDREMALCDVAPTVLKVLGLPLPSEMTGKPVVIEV

[9] = pIC50, apparent C. elegans iPGM

Compound | IC50 [2, 9] [nM] | IC50 ([2]; pIC50 C. elegans iPGM) [nM] | IC50 ([3]; pIC50, apparent E. coli iPGM) [nM] | IC50 ([3]; pIC50 E. coli iPGM) [nM] | IC50 ([7]; pIC50 B. malayi iPGM) [nM] | other results
^Ac-DYDYPGDYSYLY-NH2 [Ce-L2d, linear form of Ce-2d] |  |  |  |  |  | inhibitory activity on the PGM panel, in words [1]: completely inactive on all iPGMs
CC(C)C[C@H](NC(=O)[C@H](Cc1ccc(O)cc1)NC(=O)[C@@H]1CSCC(=O)N[C@H](Cc2ccc(O)cc2)C(=O)N[C@@H](CC(=O)O)C(=O)N[C@@H](Cc2ccc(O)cc2)C(=O)N2CCC[C@H]2C(=O)NCC(=O)N[C@@H](CC(=O)O)C(=O)N[C@@H](Cc2ccc(O)cc2)C(=O)N1)C(=O)N[C@@H](Cc1ccc(O)cc1)C(=O)NCC(=O)N[C@H](C(=O)N[C@@H](CS)C(=O)NCC(N)=O)[C@@H](C)O [Ce-2] | 2.24 | 0.251 | 1.66 | 0.55 |  | IC50 [4]: 3.24 nM; pIC50 from the GEMBE assay [5]: no apparent activity
Ce-2S (Ce-2 with Cys14Ser) (peptide) |  |  |  |  |  | IC50 of inhibition of PGM activity, enzyme-coupled bioluminescent assay [6]: 10 nM
CC(C)C[C@H](NC(=O)[C@H](Cc1ccc(O)cc1)NC(=O)[C@@H]1CSCC(=O)N[C@H](Cc2ccc(O)cc2)C(=O)N[C@@H](CC(=O)O)C(=O)N[C@@H](Cc2ccc(O)cc2)C(=O)N2CCC[C@H]2C(=O)NCC(=O)N[C@@H](CC(=O)O)C(=O)N[C@@H](Cc2ccc(O)cc2)C(=O)N1)C(N)=O [Ce-2e] ({CH2CO}-[dY]DYPGDYCYL-NH2; thioether N-8) |  | 69.2 |  | 53.7 | 2950 | potency decrease [1]: ~100 fold
C[C@@H](O)[C@H](NC(=O)[C@H](CO)NC(=O)[C@@H]1CSCC(=O)N[C@H](Cc2ccc(O)cc2)C(=O)N2CCC[C@H]2C(=O)N[C@@H](CCC(=O)O)C(=O)N[C@@H](Cc2c[nH]c3ccccc23)C(=O)N2CCC[C@H]2C(=O)N[C@@H](CC(N)=O)C(=O)N1)C(=O)N[C@@H](CS)C(=O)NCC(N)=O [Bm-6] ({CH2CO}-[dY]PEWPNCSTCG-NH2; thioether N-7) | 2630 |  | 2820 |  |  | IC50 ([8]; pIC50, apparent O. volvulus iPGM): 832 nM; IC50 ([7]; pIC50, apparent B. malayi iPGM): 692 nM
CC(C)C[C@H](NC(=O)[C@H](Cc1ccc(O)cc1)NC(=O)[C@@H]1CSCC(=O)N[C@H](Cc2ccc(O)cc2)C(=O)N[C@@H](CC(=O)O)C(=O)N[C@@H](Cc2ccc(O)cc2)C(=O)N2CCC[C@H]2C(=O)NCC(=O)N[C@@H](CC(=O)O)C(=O)N[C@@H](Cc2ccc(O)cc2)C(=O)N1)C(=O)N[C@@H](Cc1ccc(O)cc1)C(=O)NCC(N)=O [Ce-2c] |  | 22.9 |  | 10.5 | 1170 | IC50 ([8]; pIC50 O. volvulus iPGM): 3890 nM

— publication PMC5382265, “Macrocycle peptides delineate locked-open inhibition mechanism for microorganism phosphoglycerate mutases” (Nature Communications, 2017)
